Reference: patent publication US20110086089A1, “USE OF P27KIP1 FOR THE PREVENTION AND TREATMENT OF HEART FAILURE” (UNIVERSITY HEALTH NETWORK, priority 2008, published 2011)

Assays:
[1] = system: p27 phosphorylation at S83 and T187 in cardiomyocytes; assay: p27 phosphorylation at S83 and T187 in Ang II-treated cardiomyocytes (Western blot); assay type: cell-based, rat; conditions: Ang II 4 h; lentiviruses 72 h; DMAT 20 μM pre-incubated 30 min; TAT-conjugated CK2-alpha-prime 2.5 μg/ml 1 h
Protocol: FIG. 2 is a series of graphs and blots showing Ang II triggers CK2-alpha-prime-dependent phosphorylation of p27 on S83 and T187 in cardiomyocytes. (A) p27 is a substrate of CK2-alpha-prime. […] In vitro kinase assays employing recombinant wt.p27 (1 μg) or phosphorylation site mutants of p27 as substrates were incubated with recombinant CK2-alpha-prime/beta (200 ng). Aliquots of the reaction mixtures were resolved on SDS-PAGE, electrotransferred to nitrocellulose membranes, and the amount of incorporated radioactive [^32P}-label into p27 was quantified with a PhosphorImager and ImageJ software. Individual membranes were probed with anti-CK2-alpha-prime, anti-p27 (input), or phosphorylation site specific antibodies to p27. […] Samples were resolved on SDS-PAGE, transferred to nitrocellulose-membranes, and the amount of incorporated radioactive label into histones was quantified with a PhosphorImager and ImageJ. The input amount of each CK2-alpha-prime and p27 protein used in the kinase reaction mixtures was monitored by immunoblot analysis employing anti-His. […] Biochemically fractionated extracts corresponding to 4×10^5 cells per lane were analyzed by immunoblotting employing antibodies as indicated on the left. […]

[2] = system: p27 degradation in cardiomyocytes; assay: Ang II-triggered p27 degradation / p27 half-life in cardiomyocytes; assay type: cell-based, rat; conditions: for Ang II-triggered decrease in p27 protein levels / p27 destabilization: cardiomyocytes + Ang II, lactacystin 10 μM 30 min pre-treatment, DMAT 30 minutes prior, lentivirus 72 h; for p27 degradation: proteasome inhibitors, conditions not given
Protocol: FIG. 3 is a series of graphs, blots and cell stainings showing essential function of CK2-alpha-prime-mediated p27 degradation for cardiomyocyte hypertrophy. […] Cells were transduced with TAT-conjugated wt.p27 (2.5 μg/ml), phosphorylation resistant p27deltaPi, or phosphomimicking mutant p27.S83D/T187D for 1 h before Ang II addition for 4 h. Isotypic anti-CK2-alpha-prime immunocomplex kinase assays were performed employing histone H1 substrate. Input levels of transduced TAT-fusion proteins were determined prior to Ang II addition by immunoblotting of total cell extracts. Mean±s.e.m., n=3. *P<0.01 vs unstimulated cells. **P<0.01 vs Ang II. #P<0.01. endog, endogenous. (B) Pharmacological inhibition of the 26S-proteasome abrogates Ang II-triggered p27 degradation. […] Alternatively, lactacystin-treated cardiomyocytes were transduced with TAT-conjugated CK2-alpha-prime or p27deltaPi (2.5 μg/ml) for 1 h prior to Ang II addition. Anti-CK2-alpha-prime immunocomplex kinase assays were performed employing histone H1 as substrate. Western blots of total cell extracts (50 μg/lane) were probed with antibodies as indicated on the left. (C) Inhibition of CK2-alpha-prime prevents Ang II-induced degradation of p27. […] Cells were then chased with excess cold methionine in the presence of Ang II and cycloheximide (100 μg/ml) to block protein synthesis for the indicated timepoints. Alternatively, cells were incubated with DMAT for 30 minutes prior to Ang II stimulation. p27 was immunoprecipitated employing anti-p27 covalently linked to protein A-agarose. Aliquots of total cell extracts were resolved on SDS-PAGE, transferred to nitrocellulose-membranes, autoradiographed (right panel), and quantified with ImageJ software (left panel). (B, C) One typical result of two independent experiments is shown. (D) Subcellular localization of p27 and S83 phosphorylated p27 in Ang II-stimulated cardiomyocytes. Cells were transduced with lentiviruses encoding siCK2-alpha-prime or siControl for 72 h prior to Ang II treatment for the indicated timepoints. […] De novo protein synthesis was determined by in vivo labeling of cardiomyocytes with [^35S]methionine (right panel). Cell size was determined by indirect immunofluorescence microscopy employing anti-tropomyosin staining and ImageJ. Expression levels of endogenous CK2-alpha-prime and p27 were determined by immunoblotting of total cell extracts employing specific antibodies as indicated. Ectopic SR.CK2-alpha-prime and SR.p27 were detected using anti-His. […]
For metabolic labeling, cardiomyocytes were pulsed-labeled with 100 μCi/ml [^35S]methionine/cysteine (1000 Ci/mmol; EasyTag, NEN) for 2 h in methionine/cysteine-deficient medium (DME, ICN). […] The amount of incorporated radioactive label was determined with ImageJ software. […]

[3] = system: WT mice; assay: Reversal of established Ang II-dependent cardiac hypertrophy (16 days infusion, injections from day 8); assay type: in vivo; conditions: daily i.p. injections 20 mg/kg initiated at day 8
Excerpt: FIG. 10 is the experimental treatment protocol. To examine the therapeutic effect of p27 on established cardiac hypertrophy, p27 injections were initiated at 8 days after Ang II-infusion.
To examine the effect of transduced p27 on established cardiac hypertrophy, mice were chronically infused with Ang II for 16 days and intraperitoneally injected recombinant TAT-conjugated p27ΔPi and beta-galactosidase (β-Gal) proteins starting from day 8. After 16 days of Ang II-infusion, the heart/body weight ratio were increased by 45% compared to saline-infused controls (FIG. 11B; group 7 vs. group 6). […] Transduced p27ΔPi regressed the increase in heart size by 47% as compared to β-Gal control injections (group 3 vs group 4). In Ang II-infused mice treated with p27ΔPi values of left ventricular posterior wall and interventricular septum thickness, LVEDD, LVESD, FS and EF were not significant different compared to saline-infused mice. Thus, p27 can reverse established compensated cardiac hypertrophy without exerting any deleterious effect on cardiac function.
Spontaneously beating cardiomyocytes from heart ventricles of neonatal rats were cultured and subjected to treatment with angiotensin II (Ang II). DMAT (2-dimethylamino-4,5,6,7-tetrabromo-1H-benzimidazol), DMSO, lactacystin and LLM were obtained from Calbiochem. Ang II was purchased from Sigma. Animal usage was in accordance with approved institutional animal care guidelines. Age-matched male WI C57BL/6 and p27^−/− mice were used in this study. For results shown in FIGS. 1 to 9: Ang II was chronically infused subcutaneously by osmotic pumps (model 2000, Alzet) at a dose of 1.4 μg/kg per minute for 14 days. TAT.proteins (10 mg/kg) were injected intraperitoneally once daily for 14 days. For results shown in FIGS. 10 to 12: Ang II was chronically infused subcutaneously by osmotic pumps (model 2000, Alzet) at a dose of 0.7 μg/kg per minute for 16 days. TAT.proteins (20 mg/kg) were injected intraperitoneally once daily for 8 days starting at day 8. Thoracic aortic banding (TAB) and pressure gradient measurements were performed as described^39.
After fixation in paraformaldehyde (4% in PBS, pH 7.4), a transverse midsection (3 μm thickness) was stained with Alexa Fluor® 488-conjugated wheat germ agglutinin for cross sectional measurements. Cardiomycoyte area was determined by planimetry employing ImageJ software. A total of 200 cells were counted in each group.

CN(C)c1nc2c(Br)c(Br)c(Br)c(Br)c2[nH]1 [DMAT, 2-dimethylamino-4,5,6,7-tetrabromo-1H-benzimidazol, reference compound]
S83/T187 phosphorylation of p27 in cardiomyocytes [1]: abolished | Ang II-triggered decrease in p27 protein levels / p27 destabilization [2]: prevented p27 destabilization

alpha-methylomuralide
p27 degradation [2]: inhibit p27 degradation

CC(=O)N[C@@H](CSC(=O)[C@]1([C@@H](O)C(C)C)NC(=O)[C@H](C)[C@@H]1O)C(=O)O [lactacystin]
Ang II-triggered decrease in p27 protein levels / p27 destabilization [2]: sensitive to proteasome inhibition

TAT-β-Gal: recombinant TAT-conjugated beta-galactosidase, control injections
Heart weight ([3]; Ang II infusion 16 days (0.7 μg/kg per minute)): 159 ± 7.3 mg | FS ([3]; Ang II infusion 16 days): 44 ± 1.6 % | Heart weight/body weight ([3]; Ang II infusion 16 days): 6.9 ± 0.2 mg/g | IVSD ([3]; Ang II infusion 16 days): 1.4 ± 0.1 mm | LVEDD ([3]; Ang II infusion 16 days): 3.8 ± 0.1 mm | LVEF ([3]; Ang II infusion 16 days): 78 ± 3.7 % | LVESD ([3]; Ang II infusion 16 days): 2.7 ± 0.2 mm | PWD ([3]; Ang II infusion 16 days): 1.4 ± 0.1 mm

CC(C)C[C@H](NC(=O)[C@H](Cc1ccccc1)NC(=O)c1cnccn1)B(O)O [PS-341]
p27 degradation [2]: inhibit p27 degradation
